Measurements reported in patent EP0103895A2, “Novel hydroxylamine derivatives, production and use thereof” (MEIJI SEIKA KABUSHIKI KAISHA, priority 1982, dated 1984).
Values joined by “and” are separate entries in the source; they are usually repeats but may differ in a detail not shown here. Equal values may be shown once. Read-outs that look alike come from different tables or passages of the source.

Key:
[1] = tested on: Diphyllobothrium erinacei; test: Test of anthelmintic effect against Diphyllobothrium erinacei (tapeworm) in experimentally infected cats (Test Examples A5, B5, C5, D5); details: for anthelmintic effect: 5 continuous administrations of 50 mg/Kg
[2] = tested on: fowl roundworm (As. galli); test: Anthelmintic test in chickens artificially infected with fowl roundworm, compound added to feed, E.P.G. and worm count up to 21st day (Test Examples A2, B2, C2, D2); format: in vivo, Ascaridia galli; details: for inhibition in vivo at 10 ppm: 10 ppm added to feed
[3] = tested on: canine filaria; Dirofilaria immitis; test: Test of anthelmintic effect against canine filaria in naturally infected dogs, subcutaneous injection, microfilaria in blood and adult filaria at autopsy (Test Examples A10, B10, C10, D10); format: in vivo
Experimental: Eight dogs infected with canine filaria; Diro- filaria immitis (naturally infected dogs) were employed in groups each of two dogs.
The compounds provided for tests were Compound Nos. Al, A3 and A12. 20 mg of each was administered by subcutaneous injection per Kg of body weight to each of the two dogs as a suspension in 1% "Tween 80" solution once per day for three days. As control, 3 ml of the 1% "Tween 80" solution was subcutaneously injected into two dogs once per day for three days.
Before administration and on the 10th day after administration, 20 µl of earlobe blood of each dog was sampled and examined to determine the change in microfilaria (mf) according to the concentrated smear color method, and judgement on the effect on microfilaria (mf) was made. Judgement relating to adult filaria was made on the 10th day after the last administration by killing the dogs and carrying out autopsis.
30 mg of each compound was administered by subcutaneous injection per Kg of body weight to each of the two dogs as a suspension in 1% "Tween 80" solution once per day for three days. As control, 3 ml of the 1% "Tween 80" solution was subcutaneously injected into two dogs once per day for three days.
30 mg of each compound was administered by subcutaneous injection per Kg of body weight to each of two dogs as a suspension in 1% "Tween 80" solution once per day for three days. As control, 3 ml of the 1% "Tween 80" solution was subcutaneously injected to two dogs once per day for three days.
20 mg of each compound was administered by subcutaneous injection per kg of body weight once per day for three days to each of two dogs. These compounds were administered as a suspension in 1% "Tween 80" in the case of Compound No.Dl3 and as solutions dissolved in distilled water for injection in the case of Compounds Nos. D10 and D16, respectively. As control, 3 ml of the 1% "Tween 80" solution was subcutaneously injected into two dogs once per day for three days.

[4] = tested on: swine Oesophagostomum (Oesophagostomum dentatum); test: Test of anthelmintic effect against swine Oesophagostomum in naturally infected pigs, E.P.G. on 7th day (Test Examples A8, B8, C8, D8); format: in vivo; details: for anthelmintic effect: one administration of 20 mg/Kg
Experimental: Six pigs infected with swine Oesophagostomum (naturally infected pigs) were employed by grouping them into groups each of two pigs.
As a control, only gelatin capsules were administered orally to the two pigs.
Before administration and on the 7th day after administration, fecal matter testing was conducted to calculate the E.P.G., and the anthelmintic effect was judged by the changing of the E.P.G. to negative.

[5] = tested on: Liver fluke; Fasciola hepatica (F. hepatica); test: Test of anthelmintic effect against rat infected experimentally with liver fluke (Test Examples A11, B11, C11, D11); format: in vivo; set-up: key to Presence or absence of fluke egg in fecal matter On 21st day after the last administration: +: indicates detection of fluke egg; -: indicates no detection
From the text: Twenty-eight (28) rats were employed in fourteen groups each of two rats, each rat being infected with 5 metacercariae of Liver fluke; Fasciola he^patica (F.. hepatica) and confirmed to have worm eggs on the 75th day after infection according to fecal matter testing.
Judgement of the effect was made by the presence or absence of the worm gees in the fecal matter on the 21st day after the last administration and by examination according to autopsis as to whether the worm bodies were dead or alive in the liver.
The same as that in Test Example All, but eight (8) rats were employed by grouping them into groups each of two rats, each rat being infected with 5 metacercariae of liver fluke and confirmed to have fluke eggs on the 75th day after infection according to fecal matter testing.
The compounds provided for the tests were Compound Nos. Bl, B8 and B19.
The same as that in Test Example All, but six (6) rats were employed by grouping them into groups each of two rats, each rat being infected with 5 metacercariae of Fasciola hepatica and confirmed to have worm eggs on the 75th day after infection according to fecal matter testing.
The compounds provided for the tests were Compound Nos. C2 and C6.
The same as that in Test Example All, but the compounds provided for tests were Compound Nos. D14, D15 and D16.

[6] = tested on: fowl roundworm (Ascaridia galli); test: Anthelmintic test in chickens artificially infected with fowl roundworm, single oral dose in gelatin capsule, worm bodies counted within 48 hours (Test Examples A1, B1, C1, D1); format: in vivo; details: Ascaridia galli, po, 48 h, read-out: Anthelmintic effect after 48 hours
Experimental: Chickens infected artificially with fowl roundworm (Ascaridia galli) were employed in groups each consisting of three chickens. Fecal matter testing was conducted before administration of medicine to confirm infection with the worm. The quantity of the compound provided for testing was 10 mg and 20 mg per Kg of body weight, which was orally administered each in a gelatin capsule to the chicken. The number of worm bodies discharged within 48 hours after administration of medicine was counted, the chicken was killed after 48 hours and the number of worm bodies remaining in the enteron was counted to determine the anthelmintic percentage, wherefrom the antihelmintic effect was judged.
The same as that in Test Example Al.
The same as that in Test Example Al except that the compound provided for testing was in quantities of 30 mg and 50 mg per Kg of body weight, which were orally administered to the chickens in gelatin capsules.
The same as that in Test Example Al, except that the compounds provided for testing were used in quantities of 15 mg and 30 mg per Kg of body weight, which were orally administered each in a gelatin capsule to the chicken.

[7] = Ascaridia galli, po, 504 h, chickens, worm count on 21st day, one value per chicken, read-out: Anthelmintic effect
[8] = Ascaridia galli, po, 504 h, chickens, 50 ppm added to feed, worm count on 21st day, one value per chicken, read-out: Anthelmintic effect
[9] = dogs, 20 mg/Kg x 3 subcutaneously, autopsy on 10th day after the last administration, one value per dog, 20 mg/kg
[10] = pigs, 20 mg/Kg orally once, baseline, one value per pig, 20 mg/kg
[11] = pigs, 20 mg/Kg orally once, one value per pig
[12] = rats, 50 mg/Kg x 5 orally, one value per rat

C#CCN(OCC=C)C(=O)c1ccc(F)cc1 [Compound A12, N-propargyl-N-(p-fluorobenzoyl)-O-allylhydroxylamine]
Number of worm bodies remaining in enteron ([1]; cats infected with 5 plerocercoids, 50 mg/Kg x 5 times orally, autopsy ten days after administration, one value per cat): 0
Worm egg detection on 10th day after administration ([1]; cats, 50 mg/Kg x 5 times orally, one value per cat (Table A7)): -
anthelmintic effect ([1]; cats): marked anthelmintic effects
inhibition in vivo at 10 ppm [2, 7]: 80 to 90%
inhibition in vivo at 50 ppm [2, 8]: 100%
inhibition in vivo at 20 mg/kg ([3]; Dirofilaria immitis, sc, 240 h, dogs, administration of 20 mg/Kg repeated three times, given as about 50% or more, read-out: anthelmintic effect against adult filaria): ≥ 50%
Effect on adult filaria: Number of worms killed/Total parasites [3, 9]: 13/21 and 15/26
Effect on adult filaria: Percent of worms killed [3, 9]: 62% and 58%
Number of microfilaria/20 µl On 10th day after the last administration ([3]; dogs, 20 mg/Kg x 3 subcutaneously, earlobe blood, one value per dog): 0 /20 µl
anthelmintic effect against microfilaria (mf) ([3]; dogs, administration of 20 mg/Kg repeated three times): marked anthelmintic effect
Change of E.P.G. Before administration [4, 10]: 2,100 E.P.G. and 1,500 E.P.G.
Change of E.P.G. 7th day [4, 11]: 0 E.P.G.
anthelmintic effect ([4]; pigs): marked anthelmintic effect
Condition of fluke body ([5]; rats, 50 mg/Kg x 5 orally, autopsy, liver, "Denatured" = fluke body is alive but a part of fluke body has changed, one value per rat): dead
Presence or absence of fluke egg in fecal matter On 21st day after the last administration [5, 12]: -

C#CCN(C=O)OCC=C [Compound A13, N-propargyl-N-formyl-0-allylhydroxylamine]
inhibition in vivo at 10 ppm [2, 7]: 80 to 90%
inhibition in vivo at 50 ppm [2, 8]: 100%
inhibition in vivo at 10 mg/kg ([6]; chickens, 10 mg/Kg orally in gelatin capsule, one value per chicken (No.1-3)): 100%
inhibition in vivo at 20 mg/kg ([6]; chickens, 20 mg/Kg orally in gelatin capsule, one value per chicken (No.1-3)): 100%
Condition of fluke body ([5]; rats, 50 mg/Kg x 5 orally, autopsy, liver, "Denatured" = fluke body is alive but a part of fluke body has changed, one value per rat, 50 mg/kg): denatured and dead
Presence or absence of fluke egg in fecal matter On 21st day after the last administration [5, 12]: -

C=CCN(OCCCCC)C(C)=O [Compound B20]
inhibition in vivo at 20 ppm ([2]; Ascaridia galli, po, 504 h, chickens, 20 ppm added to feed, worm count on 21st day, one value per chicken, read-out: Anthelmintic effect): 100%
inhibition in vivo at 50 ppm [2, 8]: 100%
inhibition in vivo at 30 mg/kg ([6]; chickens, 30 mg/Kg orally in gelatin capsule, one value per chicken (No.1-3)): 100%
inhibition in vivo at 50 mg/kg ([6]; chickens, 50 mg/Kg orally in gelatin capsule, one value per chicken (No.1-3)): 100%
Change of E.P.G. Before administration [4, 10]: 1,000 E.P.G. and 1,600 E.P.G.
Change of E.P.G. 7th day [4, 11]: 0 E.P.G.
anthelmintic effect ([4]; pigs): marked anthelmintic effect

C=CCON(CC=C)C(=O)CC [Compound C2]
Number of worm bodies remaining in enteron ([1]; cat, 50 mg/Kg x 5, oral in gelatin capsule): 0
Worm egg detection on 10th day after administration ([1]; cat, 50 mg/Kg x 5, oral in gelatin capsule, once per day for 5 days): -
anthelmintic effect ([1]; cats): marked anthelmintic effects
inhibition in vivo at 25 ppm ([2]; Ascaridia galli, feed or water, 504 h, chicken, 25 ppm in feed, read-out: Anthelmintic effect): 100%
inhibition in vivo at 50 ppm ([2]; Ascaridia galli, feed or water, 504 h, chicken, 50 ppm in feed, read-out: Anthelmintic effect): 100%
Change of E.P.G. 21st day ([2]; chicken, 25 ppm in feed): 0
Change of E.P.G. 21st day ([2]; chicken, 50 ppm in feed): 0
inhibition in vivo at 30 mg/kg ([3]; Dirofilaria immitis, sc, 240 h, dog, 30 mg/Kg x 3, subcutaneous injection, read-out: Effect on adult filaria: Percent of worms killed): 62%
inhibition in vivo at 30 mg/kg ([3]; Dirofilaria immitis, sc, 240 h, dogs, administration of 30 mg/Kg repeated three times, given as about 50% or more, read-out: anthelmintic effect against adult filaria): ≥ 50%
Number of microfilaria/20 µl On 10th day after the last administration ([3]; dog, 30 mg/Kg x 3, subcutaneous injection, suspension in 1% Tween 80): 0 /20 µl
Effect on adult filaria: Number of worms killed/ Total parasite ([3]; dog, 30 mg/Kg x 3, subcutaneous injection, 30 mg/kg): 5/8 and 8/13
anthelmintic effect against microfilaria (mf) ([3]; dogs, administration of 30 mg/Kg repeated three times): marked anthelmintic effect
inhibition in vivo at 30 mg/kg ([6]; chicken, 30 mg/Kg oral in gelatin capsule, chickens No.1-3): 100%
inhibition in vivo at 50 mg/kg ([6]; chicken, 50 mg/Kg oral in gelatin capsule, chickens No.1-3): 100%
Change of E.P.G. 7th day ([4]; pig, Oesophagostomum dentatum, 20 mg/Kg, one administration): 0
Change of E.P.G. Before administration ([4]; pig, Oesophagostomum dentatum, before 20 mg/Kg (baseline)): 1,700 and 1,200
anthelmintic effect ([4]; pigs): marked anthelmintic effect
Condition of fluke body ([5]; rat, 50 mg/Kg x 5): dead
Presence or absence of fluke egg in fecal matter On 21st day after the last administration ([5]; rat, 50 mg/Kg x 5): -
anthelmintic effect ([5]; rats, five administrations in a dose of 50 mg/Kg each): marked antihelmintic effect
